From patent US20210030796A1, “METHOD FOR PRODUCING ANTIGEN-SPECIFIC T CELLS” (Thyas Co. Ltd., priority 2019, published 2021)

Assays:
[1] = test system: mononuclear cells from peripheral blood of a healthy subject (CD137+ T cells); experiment: T cell activation by EBV-LMP2A antigenic peptide stimulation, CD137 flow cytometry; assay type: cell-based, human; conditions: addition of CMA (0.3 to 3 μM per Example 1), two samples of PBMC from a healthy subject
Protocol: Re-inoculate in a 24-well plate. Add 0.3 to 3 μM Concanamycin A to a medium and incubate at 37° C. and 5% CO2 for 2 hours. Add 10 μg/ml EBV LMP2A peptide and culture at 37° C. and 5% CO2 for 24 hours. Suspend 2×10^6 cells of peripheral blood mononuclear cells (PBMC) separated from peripheral blood of a healthy subject in a MEM-alpha medium added with 10% FBS, 200 U IL-2 and 20 μg/ml IL-15, and add 10 μg/ml EBV LMP2A peptide. Start culturing at 37° C. and 5% CO2. Replace the medium and divide the wells every 2 to 5 days according to amplification rate of the cells. Culture for 12 days. Collect the cells on day 12 and re-inoculate in a 24-well plate at 2×10^6 cells/well. Add 0.3 to 3 μM Concanamycin A to the medium and incubate at 37° C. and 5% CO2 for 2 hours. Then, add 10 μg/ml EBV LMP2A peptide and culture at 37° C. and 5% CO2 for 24 hours. After 24 hours, stain the cells with CD8-PerCP/Cy5.5 antibody and CD137-PE antibody, and analyze using a flow cytometer (BD FACS Aria II).

[2] = test system: mononuclear cells from peripheral blood of a leukemia patient (CD137-expressing T cells); experiment: T cell activation by WT1 antigenic peptide stimulation, CD137 expression; assay type: cell-based, human; conditions: FIG. 3; medium added with 1 μM CMA; two samples of PBMC from a leukemia patient

C/C=C/[C@H]1O[C@@](O)([C@@H](C)[C@H](O)[C@H](C)[C@H]2OC(=O)/C(OC)=C/C(C)=C/[C@@H](C)[C@@H](O)[C@@H](CC)[C@@H](O)[C@H](C)C/C(C)=C/C=C/[C@@H]2OC)C[C@@H](O[C@H]2C[C@@H](O)[C@H](OC(N)=O)[C@@H](C)O2)[C@@H]1C [Concanamycin A]
percentage of CD137+ T cells activated with EBV-LMP2A peptide ([1]; FIG. 1): increased
number of CD137+ T cells activated with EBV-LMP2A peptide ([1]; FIG. 2): increased
percentage of T cells activated (CD137-expressing) by WT1 peptide stimulation [2]: induced
